ChEMBL document CHEMBL3585279, “Novel 2,5-disubtituted-1,3,4-oxadiazoles with benzimidazole backbone: a new class of β-glucuronidase inhibitors and in silico studies” (Bioorg Med Chem, 2015)

Target: T1, Beta-glucuronidase (Homo sapiens, UniProt P08236)
T1 sequence (P08236 whole entry): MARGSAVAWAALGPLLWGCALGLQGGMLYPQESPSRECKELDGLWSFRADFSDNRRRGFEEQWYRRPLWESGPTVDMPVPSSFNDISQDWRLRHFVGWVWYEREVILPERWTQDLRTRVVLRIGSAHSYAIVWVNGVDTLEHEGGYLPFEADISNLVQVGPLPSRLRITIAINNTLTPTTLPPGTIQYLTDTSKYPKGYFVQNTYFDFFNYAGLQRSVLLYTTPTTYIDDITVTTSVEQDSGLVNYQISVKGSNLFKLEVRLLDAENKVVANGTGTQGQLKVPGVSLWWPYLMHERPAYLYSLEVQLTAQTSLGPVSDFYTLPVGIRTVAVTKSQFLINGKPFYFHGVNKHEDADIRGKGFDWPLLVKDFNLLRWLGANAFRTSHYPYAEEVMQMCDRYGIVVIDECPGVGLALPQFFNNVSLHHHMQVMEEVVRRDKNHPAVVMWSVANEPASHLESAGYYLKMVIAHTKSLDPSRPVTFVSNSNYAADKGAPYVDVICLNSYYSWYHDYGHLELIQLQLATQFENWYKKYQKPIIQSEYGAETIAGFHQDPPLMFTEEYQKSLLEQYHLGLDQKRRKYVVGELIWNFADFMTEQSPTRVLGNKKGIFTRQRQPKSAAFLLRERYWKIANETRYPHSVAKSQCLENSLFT
Description: Inhibition of beta-D-glucuronidase (unknown origin) assessed as reduction in p-nitrophenol formation using p-nitrophenyl-beta-D-glucuronide substarte incubated at 37 degC for 30 mins by spectrophotometric method

Row | SMILES | IC50
1 | COc1ccc(-c2nnc(-c3ccc(-c4nc5cc(C)c(C)cc5[nH]4)cc3)o2)cc1 | Not Active
2 | Cc1cccc(-c2nnc(-c3ccc(-c4nc5cc(C)c(C)cc5[nH]4)cc3)o2)c1 | Not Active
3 | Cc1cc2nc(-c3ccc(-c4nnc(-c5ccccc5C)o4)cc3)[nH]c2cc1C | Not Active
